# Assay results published in article doi:10.1101/2025.08.21.671483v1, “In vitro and in vivo activity profiles of broad-spectrum bacterial ATP synthase inhibitors” (biorxiv, 2025).
# Where two headings read alike, the source gives them in different places.
# Legend:
# Escherichia coli ec302 = test system: T1, Escherichia coli ec302; assay: microbe, parasite or virus in culture; design: species or system bacteria; CLSI broth microdilution MIC, no visible growth
# T1 construct: ec302
# Escherichia coli ec310 = test system: T2, Escherichia coli ec310; assay: microbe, parasite or virus in culture; design: species or system bacteria; CLSI broth microdilution MIC, no visible growth
# T2 construct: ec310
# [1] = test system: T3, Escherichia coli ATCC BAA2471; assay: microbe, parasite or virus in culture; design: species or system bacteria; CLSI broth microdilution MIC, no visible growth
# T3 construct: ATCC BAA-2471
# [2] = test system: T4, Escherichia coli 95882 CW-2011; assay: microbe, parasite or virus in culture; design: species or system bacteria; CLSI broth microdilution MIC, no visible growth
# T4 construct: 95882 CW-2011
# [3] = test system: T5, Escherichia coli ATCC 35218; assay: microbe, parasite or virus in culture; design: species or system bacteria; CLSI broth microdilution MIC, no visible growth
# T5 construct: ATCC 35218
# Escherichia coli ec309 = test system: T6, Escherichia coli ec309; assay: microbe, parasite or virus in culture; design: species or system bacteria; CLSI broth microdilution MIC, no visible growth
# T6 construct: ec309
# Escherichia coli ec305 = test system: T7, Escherichia coli ec305; assay: microbe, parasite or virus in culture; design: species or system bacteria; CLSI broth microdilution MIC, no visible growth
# T7 construct: ec305
# Escherichia coli ec308 = test system: T8, Escherichia coli ec308; assay: microbe, parasite or virus in culture; design: species or system bacteria; CLSI broth microdilution MIC, no visible growth
# T8 construct: ec308
# [4] = test system: T9, Escherichia coli 70122 CW-2007; assay: microbe, parasite or virus in culture; design: species or system bacteria; CLSI broth microdilution MIC, no visible growth
# T9 construct: 70122 CW-2007
# E. coli ATCC 25922 [5] = test system: T10, E. coli ATCC 25922; assay: microbe, parasite or virus in culture; design: species or system bacteria; CLSI broth microdilution MIC, no visible growth; settings: Escherichia coli
# T10 construct: ATCC 25922
# E. coli MC4100 lptD4213 = test system: T11, E. coli MC4100 lptD4213; assay: microbe, parasite or virus in culture; settings: Escherichia coli, MC4100LPTD4213, read-out: MIC
# T11 construct: MC4100 lptD4213 membrane-compromised
# E. coli MC4100 WT = test system: T12, E. coli MC4100 WT; assay: microbe, parasite or virus in culture; design: species or system bacteria; CLSI broth microdilution MIC, no visible growth; settings: Escherichia coli, MC4100WT
# T12 construct: MC4100 (ATCC 35695)
# E. coli ATCC 25922 [6] = test system: T10, E. coli ATCC 25922; assay: microbe, parasite or virus in culture; design: species or system bacteria; CLSI broth microdilution MIC, no visible growth; settings: Escherichia coli; remark: listed apart in the source
# S. aureus ATCC 29740hemB = assay: microbe, parasite or virus in culture; settings: Staphylococcus aureus, ATCC29740HEMB, read-out: MIC
# [7] = test system: T13, S. aureus ATCC 29740 (Newbould); assay: microbe, parasite or virus in culture; design: species or system bacteria; CLSI broth microdilution MIC, no visible growth; settings: Staphylococcus aureus
# T13 construct: ATCC 29740 (Newbould)
# E. coli MC4100 acrAB = test system: T14, E. coli MC4100 acrAB; assay: microbe, parasite or virus in culture; settings: Escherichia coli, MC4100ACRAB, read-out: MIC
# T14 construct: MC4100 acrAB efflux-deficient
# S. aureus ATP synthase = biological target: T15, S. aureus ATP synthase (Staphylococcus aureus, UniProt Q99SF0); assay: ATP production by membrane vesicles, luciferase luminescence; type: biochemical; settings: […] NADH, 1 mM ADP, 10 mM potassium phosphate; 30 min preincubation, 60 min reaction
# T15 construct: gene atpE
# Text: ATP production by membrane vesicles, luciferase luminescence on S. aureus ATP synthase
# E. coli ATP synthase = biological target: T16, E. coli ATP synthase (Escherichia coli, UniProt P68699); assay: as above; type: biochemical; settings: […] NADH, 1 mM ADP, 10 mM potassium phosphate; 30 min preincubation, 60 min reaction
# T16 construct: gene atpE
# Text: ATP production by membrane vesicles, luciferase luminescence on E. coli ATP synthase
compound,measurement,setting,value
"O=C1CN(/N=C/c2ccc([N+](=O)[O-])o2)C(=O)N1 [NIT, nitrofurantoin]",MIC,"Escherichia coli ec302; EC302, read-out: NIT MIC",16 µg/mL
same,MIC,"Escherichia coli ec310; EC310, read-out: NIT MIC",8 µg/mL
same,MIC,"[1]; ATCCBAA2471, read-out: NIT MIC",32 µg/mL
same,MIC,"[2]; 95882CW2011, read-out: NIT MIC",8 µg/mL
same,MIC,"[3]; ATCC35218, read-out: NIT MIC",0.25 µg/mL
same,MIC,"Escherichia coli ec309; EC309, read-out: NIT MIC",16 µg/mL
same,MIC,"Escherichia coli ec305; EC305, read-out: NIT MIC",8 µg/mL
same,MIC,"Escherichia coli ec308; EC308, read-out: NIT MIC",8 µg/mL
same,MIC,"[4]; 70122CW2007, read-out: NIT MIC",32 µg/mL
same,MIC,"E. coli ATCC 25922 [5]; ATCC25922, read-out: NIT MIC",8 µg/mL
"C[C@@H](O)[C@H]1C(=O)N2C(C(=O)O)=C(S[C@@H]3CN[C@H](C(=O)N(C)C)C3)[C@H](C)[C@H]12 [MEM, meropenem]",MIC,"Escherichia coli ec302; EC302, read-out: MEM MIC",0.06 µg/mL
same,MIC,"Escherichia coli ec310; EC310, read-out: MEM MIC",0.06 µg/mL
same,MIC,"[1]; ATCCBAA2471, read-out: MEM MIC",> 32 µg/mL
same,MIC,"[2]; 95882CW2011, read-out: MEM MIC",4 µg/mL
same,MIC,"[3]; ATCC35218, read-out: MEM MIC",0.06 µg/mL
same,MIC,"Escherichia coli ec309; EC309, read-out: MEM MIC",0.06 µg/mL
same,MIC,"Escherichia coli ec305; EC305, read-out: MEM MIC",0.06 µg/mL
same,MIC,"Escherichia coli ec308; EC308, read-out: MEM MIC",0.06 µg/mL
same,MIC,"[4]; 70122CW2007, read-out: MEM MIC",0.06 µg/mL
same,MIC,"E. coli ATCC 25922 [5]; ATCC25922, read-out: MEM MIC",0.06 µg/mL
"C[C@H]1CC[C@]2(NC1)O[C@H]1C[C@H]3[C@@H]4CC[C@H]5C[C@@H](O)CC[C@]5(C)[C@H]4CC[C@]3(C)[C@H]1[C@@H]2C [TO, tomatidine]",MIC,E. coli MC4100 lptD4213,> 128 µg/mL
same,MIC,E. coli MC4100 WT; read-out: TO MIC,> 128 µg/mL
same,MIC,"E. coli ATCC 25922 [6]; ATCC25922, read-out: TO MIC",> 128 µg/mL
same,MIC,S. aureus ATCC 29740hemB,≤ 0.25 µg/mL
same,MIC,"[7]; ATCC29740, read-out: TO MIC",> 128 µg/mL
same,MIC,E. coli MC4100 acrAB,> 128 µg/mL
C[C@H]1CC[C@]2(NC1)O[C@H]1C[C@H]3[C@@H]4CC[C@H]5CC(NC[C@H](N)Cc6ccc(C(F)(F)F)cc6)CC[C@]5(C)[C@H]4CC[C@]3(C)[C@H]1[C@@H]2C (stereo partly shown) [TM-303],MIC,E. coli MC4100 lptD4213,2 µg/mL
same,IC50,S. aureus ATP synthase,1320 ± 220 nM
same,MIC,E. coli MC4100 WT; read-out: TM-303 MIC,16 µg/mL
same,MIC,"E. coli ATCC 25922 [6]; ATCC25922, read-out: TM-303 MIC",8 µg/mL
same,IC50,E. coli ATP synthase,3150 ± 730 nM
same,MIC,S. aureus ATCC 29740hemB,≤ 0.25 µg/mL
same,MIC,"[7]; ATCC29740, read-out: TM-303 MIC",4 µg/mL
same,MIC,E. coli MC4100 acrAB,4 µg/mL
"CN(C)[C@@H]1C(O)=C(C(N)=O)C(=O)[C@@]2(O)C(O)=C3C(=O)c4c(O)cccc4[C@@](C)(O)[C@H]3C[C@@H]12 [TET, tetracycline]",MIC,"Escherichia coli ec302; EC302, read-out: TET MIC",2 µg/mL
same,MIC,"Escherichia coli ec310; EC310, read-out: TET MIC",2 µg/mL
same,MIC,"[1]; ATCCBAA2471, read-out: TET MIC",128 µg/mL
same,MIC,"[2]; 95882CW2011, read-out: TET MIC",1 µg/mL
same,MIC,"[3]; ATCC35218, read-out: TET MIC",0.25 µg/mL
same,MIC,"Escherichia coli ec309; EC309, read-out: TET MIC",2 µg/mL
same,MIC,"Escherichia coli ec305; EC305, read-out: TET MIC",> 128 µg/mL
same,MIC,"Escherichia coli ec308; EC308, read-out: TET MIC",128 µg/mL
same,MIC,"E. coli ATCC 25922 [5]; ATCC25922, read-out: TET MIC",1 µg/mL
